{
  "source": "patent US20040043089A1",
  "about": "“Buguzhi agent and composition and methods of preparing and administering the same” (priority 2002, published 2004)",
  "origin": "cited, not measured here",
  "data": [
    {"conditions": "literature statement", "values": [
      {"compound": "Cc1cc2cc3c(C)cc(=O)oc3c(C)c2o1", "note": "[Trioxsalen]", "Phototoxicity (in words)": "weak phototoxicity"},
      {"compound": "O=c1ccc2ccc3occc3c2o1", "note": "[angelicin]", "Phototoxicity (in words)": "only weakly phototoxic"},
      {"compound": "COc1c2ccoc2cc2oc(=O)ccc12", "note": "[bergapten, 5-methoxypsoralen]", "Phototoxicity (in words)": "phototoxic"},
      {"compound": "COc1c2ccoc2c(OC)c2oc(=O)ccc12", "note": "[isopimpinellin]", "Phototoxicity (in words)": "only weakly phototoxic"},
      {"compound": "COc1c2occc2c(OC)c2c(=O)cc(C)oc12", "note": "[khellin]", "Phototoxicity (in words)": "weak phototoxicity"},
      {"compound": "CC(C)=CCc1c(O)ccc2ccc(=O)oc12", "note": "[osthenol]", "Phototoxicity (in words)": "weak phototoxicity"},
      {"compound": "COc1c(C(C)C)oc2cc3oc(=O)ccc3cc12", "note": "[peucedanin]", "Phototoxicity (in words)": "weak phototoxicity"},
      {"compound": "COc1c2occc2cc2ccc(=O)oc12", "note": "[xanthotoxin, 8-methoxypsoralen]", "Phototoxicity (in words)": "phototoxic"}
    ]}
  ]
}
